{
  "source": "the supplement of paper PMC10307832",
  "test_in_all_cases": "relative viability (nuclei count vs DMSO), 5 days (fraction); higher = more cells survive",
  "key": {"COR-L23": {"test_system": "COR-L23", "procedure,_shortened": "(§1)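 Five library-drug doses in √10 steps were combined with a fixed anchor-drug dose, or a single drug was given alone, by pin tool to lung cancer cell lines in 1536-well plates the day after seeding. Nuclei were stained and counted after 5 days. Relative viability is the nuclei count in treated wells over that in vehicle wells, taken as the median of duplicate plates.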"}, "NCI-H2009": {"test_system": "NCI-H2009", "procedure,_shortened": "as §1"}, "NCI-H2347": {"test_system": "NCI-H2347", "procedure,_shortened": "as §1"}, "201T": {"test_system": "201T", "procedure,_shortened": "as §1"}, "HCC-15": {"test_system": "HCC-15", "procedure,_shortened": "as §1"}, "NCI-H1915": {"test_system": "NCI-H1915", "procedure,_shortened": "as §1"}, "NCI-H1437": {"test_system": "NCI-H1437", "procedure,_shortened": "as §1"}, "EMC-BAC-2": {"test_system": "EMC-BAC-2", "procedure,_shortened": "as §1"}, "HCC-366": {"test_system": "HCC-366", "procedure,_shortened": "as §1"}, "COR-L 105": {"test_system": "COR-L 105", "procedure,_shortened": "as §1"}, "NCI-H1755": {"test_system": "NCI-H1755", "procedure,_shortened": "as §1"}},
  "data": [
    {"smiles": "Cc1csc(=NC2CCCCC2)n1/N=C/c1ccc(O)c(O)c1O", "note": "[MIM1] + Cc1nc(NC(=O)N2CCC[C@H]2C(N)=O)sc1-c1ccnc(C(C)(C)C(F)(F)F)c1 [Alpelisib] (partner 2 µM)", "values": [
      {"measurement": "relative viability", "setting": "COR-L23; first compound 6.325 µM", "result": 0.558},
      {"measurement": "relative viability", "setting": "COR-L23; first compound 20 µM", "result": 0.457},
      {"measurement": "relative viability", "setting": "NCI-H2009; first compound 0.2 µM", "result": 1.14},
      {"measurement": "relative viability", "setting": "NCI-H2009; first compound 0.6325 µM", "result": 1.21},
      {"measurement": "relative viability", "setting": "NCI-H2009; first compound 2 µM", "result": 1.23},
      {"measurement": "relative viability", "setting": "NCI-H2009; first compound 6.325 µM", "result": 1.04},
      {"measurement": "relative viability", "setting": "NCI-H2009; first compound 20 µM", "result": 0.987},
      {"measurement": "relative viability", "setting": "NCI-H2347; first compound 0.2 µM", "result": 1.03},
      {"measurement": "relative viability", "setting": "NCI-H2347; first compound 0.6325 µM", "result": 1.02},
      {"measurement": "relative viability", "setting": "NCI-H2347; first compound 2 µM", "result": 1.13},
      {"measurement": "relative viability", "setting": "NCI-H2347; first compound 6.325 µM", "result": 0.728},
      {"measurement": "relative viability", "setting": "NCI-H2347; first compound 20 µM", "result": 0.534},
      {"measurement": "relative viability", "setting": "201T; first compound 0.2 µM", "result": 1},
      {"measurement": "relative viability", "setting": "201T; first compound 0.6325 µM", "result": 1.03},
      {"measurement": "relative viability", "setting": "201T; first compound 2 µM", "result": 1.02},
      {"measurement": "relative viability", "setting": "201T; first compound 6.325 µM", "result": 0.942},
      {"measurement": "relative viability", "setting": "201T; first compound 20 µM", "result": 1.29},
      {"measurement": "relative viability", "setting": "HCC-15; first compound 0.2 µM", "result": 0.989},
      {"measurement": "relative viability", "setting": "HCC-15; first compound 0.6325 µM", "result": 0.838},
      {"measurement": "relative viability", "setting": "HCC-15; first compound 2 µM", "result": 0.967},
      {"measurement": "relative viability", "setting": "HCC-15; first compound 6.325 µM", "result": 0.481},
      {"measurement": "relative viability", "setting": "HCC-15; first compound 20 µM", "result": 0.125},
      {"measurement": "relative viability", "setting": "NCI-H1915; first compound 0.2 µM", "result": 1.14},
      {"measurement": "relative viability", "setting": "NCI-H1915; first compound 0.6325 µM", "result": 1.04},
      {"measurement": "relative viability", "setting": "NCI-H1915; first compound 2 µM", "result": 1.02},
      {"measurement": "relative viability", "setting": "NCI-H1915; first compound 6.325 µM", "result": 0.773},
      {"measurement": "relative viability", "setting": "NCI-H1915; first compound 20 µM", "result": 0.277},
      {"measurement": "relative viability", "setting": "NCI-H1437; first compound 0.2 µM", "result": 0.843},
      {"measurement": "relative viability", "setting": "NCI-H1437; first compound 0.6325 µM", "result": 0.935},
      {"measurement": "relative viability", "setting": "NCI-H1437; first compound 2 µM", "result": 0.959},
      {"measurement": "relative viability", "setting": "NCI-H1437; first compound 6.325 µM", "result": 0.592},
      {"measurement": "relative viability", "setting": "NCI-H1437; first compound 20 µM", "result": 0.289},
      {"measurement": "relative viability", "setting": "EMC-BAC-2; first compound 0.2 µM", "result": 0.718},
      {"measurement": "relative viability", "setting": "EMC-BAC-2; first compound 0.6325 µM", "result": 0.771},
      {"measurement": "relative viability", "setting": "EMC-BAC-2; first compound 2 µM", "result": 0.745},
      {"measurement": "relative viability", "setting": "EMC-BAC-2; first compound 6.325 µM", "result": 0.682},
      {"measurement": "relative viability", "setting": "EMC-BAC-2; first compound 20 µM", "result": 0.404},
      {"measurement": "relative viability", "setting": "HCC-366; first compound 0.2 µM", "result": 0.37},
      {"measurement": "relative viability", "setting": "HCC-366; first compound 0.6325 µM", "result": 0.37},
      {"measurement": "relative viability", "setting": "HCC-366; first compound 2 µM", "result": 0.335},
      {"measurement": "relative viability", "setting": "HCC-366; first compound 6.325 µM", "result": 0.308},
      {"measurement": "relative viability", "setting": "HCC-366; first compound 20 µM", "result": 0.0363},
      {"measurement": "relative viability", "setting": "COR-L 105; first compound 0.2 µM", "result": 0.782},
      {"measurement": "relative viability", "setting": "COR-L 105; first compound 0.6325 µM", "result": 0.971},
      {"measurement": "relative viability", "setting": "COR-L 105; first compound 2 µM", "result": 0.849},
      {"measurement": "relative viability", "setting": "COR-L 105; first compound 6.325 µM", "result": 0.934},
      {"measurement": "relative viability", "setting": "COR-L 105; first compound 20 µM", "result": 0.966},
      {"measurement": "relative viability", "setting": "NCI-H1755; first compound 0.2 µM", "result": 0.93},
      {"measurement": "relative viability", "setting": "NCI-H1755; first compound 0.6325 µM", "result": 0.953},
      {"measurement": "relative viability", "setting": "NCI-H1755; first compound 2 µM", "result": 0.961},
      {"measurement": "relative viability", "setting": "NCI-H1755; first compound 6.325 µM", "result": 0.72},
      {"measurement": "relative viability", "setting": "NCI-H1755; first compound 20 µM", "result": 0.207}
    ]}
  ]
}
